Assay results reported in ChEMBL document CHEMBL1151505, “Imino 1,2,3,4-tetrahydrocyclopent[b]indole carbamates as dual inhibitors of acetylcholinesterase and monoamine oxidase” (Bioorg Med Chem Lett, 1996).
Several values for one entry are separate records, joined by “and”; a condition that tells them apart may be missing. Equal values may be shown once. Activity calls are given as the source filed them. The rule behind the calls is not given here.

Experiments:
[1] = target: T1, Amine oxidase [flavin-containing] A (Homo sapiens, UniProt P21397); test: Compound was tested for inhibition of monoamine oxidase-A (MAO-A).
T1 sequence (P21397 whole entry): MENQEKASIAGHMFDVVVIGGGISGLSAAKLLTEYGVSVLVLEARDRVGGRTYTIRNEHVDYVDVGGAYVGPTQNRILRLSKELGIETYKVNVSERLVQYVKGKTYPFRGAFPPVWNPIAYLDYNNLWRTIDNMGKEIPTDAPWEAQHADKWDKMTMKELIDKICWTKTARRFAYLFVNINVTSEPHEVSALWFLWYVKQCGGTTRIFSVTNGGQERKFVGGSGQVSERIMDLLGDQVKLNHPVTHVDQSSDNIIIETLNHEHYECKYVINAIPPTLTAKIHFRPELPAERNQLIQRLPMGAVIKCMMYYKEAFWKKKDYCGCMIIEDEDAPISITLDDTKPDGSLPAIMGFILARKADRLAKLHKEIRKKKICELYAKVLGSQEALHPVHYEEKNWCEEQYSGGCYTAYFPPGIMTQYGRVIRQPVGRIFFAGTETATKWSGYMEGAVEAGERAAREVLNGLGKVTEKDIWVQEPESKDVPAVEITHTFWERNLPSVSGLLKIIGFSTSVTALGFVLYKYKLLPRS

[2] = target: T2, Amine oxidase [flavin-containing] B (Homo sapiens, UniProt P27338); test: Compound was tested for inhibition of monoamine oxidase-B (MAO-B).
T2 sequence (P27338 whole entry): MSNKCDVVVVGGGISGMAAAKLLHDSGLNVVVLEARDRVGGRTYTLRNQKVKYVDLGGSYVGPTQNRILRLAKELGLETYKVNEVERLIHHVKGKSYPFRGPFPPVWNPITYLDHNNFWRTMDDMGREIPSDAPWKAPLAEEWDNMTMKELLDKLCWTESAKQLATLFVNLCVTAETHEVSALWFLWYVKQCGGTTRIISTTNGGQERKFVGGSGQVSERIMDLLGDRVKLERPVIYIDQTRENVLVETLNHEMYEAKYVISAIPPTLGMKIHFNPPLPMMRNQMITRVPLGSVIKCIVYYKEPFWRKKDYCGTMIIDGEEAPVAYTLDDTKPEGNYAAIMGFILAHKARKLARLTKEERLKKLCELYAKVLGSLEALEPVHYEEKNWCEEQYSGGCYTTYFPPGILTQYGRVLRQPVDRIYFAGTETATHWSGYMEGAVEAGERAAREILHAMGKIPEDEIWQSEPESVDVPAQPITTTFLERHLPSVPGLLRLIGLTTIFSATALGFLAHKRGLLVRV

[3] = target: T3, Acetylcholinesterase (Homo sapiens, UniProt P22303); test: Inhibition of acetylcholinesterase.
[4] = target: T2, Amine oxidase [flavin-containing] B; test: Compound was tested for inhibition of monoamine oxidase-B (MAO-B) at 10 mg/kg dose upon peroral administration in 24 hr time interval; assay type: organism-based; set-up: dose 10 mg/kg, route oral; settings: po
[5] = target: T1, Amine oxidase [flavin-containing] A; test: Compound was tested for inhibition of monoamine oxidase-A (MAO-A) at 10 mg/kg dose upon peroral administration in 1 hr time interval; assay type: organism-based; set-up: dose 10 mg/kg, route oral; settings: po
[6] = target: T1, Amine oxidase [flavin-containing] A; test: Compound was tested for inhibition of monoamine oxidase-A (MAO-A) at 10 mg/kg dose upon peroral administration in 24 hr time interval; assay type: organism-based; set-up: dose 10 mg/kg, route oral; settings: po
[7] = target: T2, Amine oxidase [flavin-containing] B; test: Compound was tested for inhibition of monoamine oxidase-B (MAO-B) at 10 mg/kg dose upon peroral administration in 1 hr time interval; assay type: organism-based; set-up: dose 10 mg/kg, route oral; settings: po
[8] = target: T1, Amine oxidase [flavin-containing] A; test: Compound was tested for inhibition of monoamine oxidase-A (MAO-A) at 10 mg/kg dose upon peroral administration in 48 hr time interval; assay type: organism-based; set-up: dose 10 mg/kg, route oral; settings: po
[9] = target: T1, Amine oxidase [flavin-containing] A; test: Compound was tested for inhibition of monoamine oxidase-A (MAO-A) at 10 mg/kg dose upon peroral administration in 4 hr time interval; assay type: organism-based; set-up: dose 10 mg/kg, route oral; settings: po
[10] = target: T2, Amine oxidase [flavin-containing] B; test: Compound was tested for inhibition of monoamine oxidase-B (MAO-B) at 10 mg/kg dose upon peroral administration in 48 hr time interval; assay type: organism-based; set-up: dose 10 mg/kg, route oral; settings: po
[11] = target: T2, Amine oxidase [flavin-containing] B; test: Compound was tested for inhibition of monoamine oxidase-B (MAO-B) at 10 mg/kg dose upon peroral administration in 4 hr time interval; assay type: organism-based; set-up: dose 10 mg/kg, route oral; settings: po
[12] = target: T3, Acetylcholinesterase; test: Compound was tested for inhibition of acetylcholinesterase at 50 mg/kg dose upon peroral administration in 24 hr time interval; assay type: organism-based; set-up: dose 50 mg/kg
[13] = target: T3, Acetylcholinesterase; test: Compound was tested for inhibition of acetylcholinesterase at 50 mg/kg dose upon peroral administration in 4 hr time interval; assay type: organism-based; set-up: dose 50 mg/kg
[14] = target: T2, Amine oxidase [flavin-containing] B; test: Compound was tested for inhibition of monoamine oxidase-B (MAO-B) at 50 mg/kg dose upon peroral administration in 1 hr time interval; assay type: organism-based; set-up: dose 50 mg/kg, route oral; settings: po
[15] = target: T3, Acetylcholinesterase; test: Compound was tested for inhibition of acetylcholinesterase at […] dose upon peroral administration in 0.5 hr time interval
[16] = target: T1, Amine oxidase [flavin-containing] A; test: Compound was tested for inhibition of monoamine oxidase-A (MAO-A) at 50 mg/kg dose upon peroral administration in 48 time interval; assay type: organism-based; set-up: dose 50 mg/kg, route oral; settings: po
[17] = target: T1, Amine oxidase [flavin-containing] A; test: Compound was tested for inhibition of monoamine oxidase-A (MAO-A) at 50 mg/kg dose upon peroral administration in 0.5 hr time interval; assay type: organism-based; set-up: dose 50 mg/kg, route oral; settings: po
[18] = target: T1, Amine oxidase [flavin-containing] A; test: Compound was tested for inhibition of monoamine oxidase-A (MAO-A) at 50 mg/kg dose upon peroral administration in 24 hr time interval; assay type: organism-based; set-up: dose 50 mg/kg, route oral; settings: po
[19] = target: T3, Acetylcholinesterase; test: Compound was tested for inhibition of acetylcholinesterase at 50 mg/kg dose upon peroral administration in 1 hr time interval; assay type: organism-based; set-up: dose 50 mg/kg
[20] = target: T2, Amine oxidase [flavin-containing] B; test: Compound was tested for inhibition of monoamine oxidase-B (MAO-B) at 50 mg/kg dose upon peroral administration in 24 hr time interval; assay type: organism-based; set-up: dose 50 mg/kg, route oral; settings: po
[21] = target: T1, Amine oxidase [flavin-containing] A; test: Compound was tested for inhibition of monoamine oxidase-A (MAO-A) at 50 mg/kg dose upon peroral administration in 1 hr time interval; assay type: organism-based; set-up: dose 50 mg/kg, route oral; settings: po
[22] = target: T1, Amine oxidase [flavin-containing] A; test: Compound was tested for inhibition of monoamine oxidase-A (MAO-A) at 50 mg/kg dose upon peroral administration in 4 hr time interval; assay type: organism-based; set-up: dose 50 mg/kg, route oral; settings: po
[23] = target: T2, Amine oxidase [flavin-containing] B; test: Compound was tested for inhibition of monoamine oxidase-B (MAO-B) at 50 mg/kg dose upon peroral administration in 48 time interval; assay type: organism-based; set-up: dose 50 mg/kg, route oral; settings: po
[24] = target: T2, Amine oxidase [flavin-containing] B; test: Compound was tested for inhibition of monoamine oxidase-B (MAO-B) at 50 mg/kg dose upon peroral administration in 0.5 hr time interval; assay type: organism-based; set-up: dose 50 mg/kg, route oral; settings: po
[25] = target: T2, Amine oxidase [flavin-containing] B; test: Compound was tested for inhibition of monoamine oxidase-B (MAO-B) at 50 mg/kg dose upon peroral administration in 4 hr time interval; assay type: organism-based; set-up: dose 50 mg/kg, route oral; settings: po
[26] = target: T2, Amine oxidase [flavin-containing] B; test: Compound was tested for inhibition of monoamine oxidase-B (MAO-B) at 50 mg/kg dose upon peroral administration in 48 hr time interval; assay type: organism-based; set-up: dose 50 mg/kg, route oral; settings: in vivo, po
[27] = target: T3, Acetylcholinesterase; settings: 50 mg/kg
[28] = target: T3, Acetylcholinesterase; settings: 50 mg/kg; remark: listed apart in the source
[29] = target: T3, Acetylcholinesterase; settings: 50 mg/kg; remark: listed apart in the source
[30] = target: T1, Amine oxidase [flavin-containing] A; test: Compound was tested for inhibition of monoamine oxidase-A (MAO-A) at 50 mg/kg dose upon peroral administration in 48 hr time interval; assay type: organism-based; set-up: dose 50 mg/kg, route oral; settings: po
[31] = target: T3, Acetylcholinesterase; settings: 10 mg/kg
Description: Compound was tested for inhibition of acetylcholinesterase at 10 mg/kg dose upon peroral administration in 24 hr time interval

[32] = target: T3, Acetylcholinesterase; settings: 10 mg/kg; remark: listed apart in the source
Description: Compound was tested for inhibition of acetylcholinesterase at 10 mg/kg dose upon peroral administration in 4 hr time interval

[33] = target: T3, Acetylcholinesterase; settings: 10 mg/kg; remark: listed apart in the source
Description: Compound was tested for inhibition of acetylcholinesterase at 10 mg/kg dose upon peroral administration in 0.5 hr time interval

[34] = target: T3, Acetylcholinesterase; settings: 10 mg/kg; remark: listed apart in the source
Description: Compound was tested for inhibition of acetylcholinesterase at 10 mg/kg dose upon peroral administration in 1 hr time interval

T3 sequence (P22303 whole entry): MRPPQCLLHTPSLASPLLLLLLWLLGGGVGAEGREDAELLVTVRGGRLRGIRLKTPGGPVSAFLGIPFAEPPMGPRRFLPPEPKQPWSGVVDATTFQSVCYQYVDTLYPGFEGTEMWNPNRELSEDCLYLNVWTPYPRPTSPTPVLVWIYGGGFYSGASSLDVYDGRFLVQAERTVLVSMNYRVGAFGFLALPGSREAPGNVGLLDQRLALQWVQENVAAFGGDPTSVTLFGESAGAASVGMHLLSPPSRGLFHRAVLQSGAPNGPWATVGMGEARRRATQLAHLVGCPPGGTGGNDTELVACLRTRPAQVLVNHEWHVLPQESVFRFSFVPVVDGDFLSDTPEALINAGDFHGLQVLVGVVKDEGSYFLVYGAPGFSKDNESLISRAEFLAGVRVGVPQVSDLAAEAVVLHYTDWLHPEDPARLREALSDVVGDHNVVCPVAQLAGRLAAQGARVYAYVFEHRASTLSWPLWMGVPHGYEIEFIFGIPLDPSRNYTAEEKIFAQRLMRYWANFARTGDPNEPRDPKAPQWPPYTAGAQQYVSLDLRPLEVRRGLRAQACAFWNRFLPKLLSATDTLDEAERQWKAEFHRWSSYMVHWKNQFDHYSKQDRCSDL

Structure (SMILES)	IC50 [1] [µM]	IC50 [2] [µM]	IC50 [3] [µM]	further results
CC(C)/N=C1/CCc2c1n(C)c1ccccc21	30.8	> 1000	–	–
C/N=C1/CCc2c1n(C)c1cc(Cl)c(OC(=O)NC)cc21	22.5	395	0.67	–
C/N=C1/CCc2c1n(C)c1ccc(OC(=O)NC)cc21	13.6	> 1000	3.36	–
C/N=C1/CCc2c1n(C)c1ccccc21	0.92	317	–	–
COc1cc(Br)c2oc(C3CCNCC3)cc2c1 [BROFAROMINE]	0.18	23.4	–	inhibition at 10 mg/kg [4]: 22.2%; inhibition at 10 mg/kg [5]: 52.1%; inhibition at 10 mg/kg [6]: 28.7%; inhibition at 10 mg/kg [7]: 29.6%; inhibition at 10 mg/kg [8]: 13.2%; inhibition at 10 mg/kg [9]: 64.2%; inhibition at 10 mg/kg [10]: 18.3%; inhibition at 10 mg/kg [11]: 42.6%
CC/N=C1/CCc2c1n(C)c1ccc(OC(=O)NC)c(Br)c21	0.21	> 1000	0.14	inhibition [12]: 0.2%; inhibition [13]: 30.9%; inhibition at 50 mg/kg [14]: 17.2%; inhibition [15]: 15.1%; inhibition at 50 mg/kg [16]: 11.7%; inhibition at 50 mg/kg [17]: 28.2%; inhibition at 50 mg/kg [18]: 13.1%; inhibition [19]: 19.4%; inhibition at 50 mg/kg [20]: 17.8%; inhibition at 50 mg/kg [21]: 33.3%; inhibition at 50 mg/kg [22]: 48.9%; inhibition at 50 mg/kg [23]: 9.3%; inhibition at 50 mg/kg [24]: 21.5%; inhibition at 50 mg/kg [25]: 25.9%
CC/N=C1/CCc2c1n(C)c1ccc(OC(=O)NC)c(Cl)c21	0.1	> 1000	0.16	–
C/N=C1/CCc2c1n(C)c1ccc(OC(=O)N(C)C)c(Br)c21	0.54	51	0.06	Inhibition [26]: 10.1% and 20.4%; inhibition [27]: inactive; inhibition [28]: inactive; inhibition at 50 mg/kg [18]: 23.2%; inhibition [29]: inactive; inhibition at 50 mg/kg [20]: 6.6%; inhibition at 50 mg/kg [21]: 44%; inhibition at 50 mg/kg [22]: 58.8%; inhibition at 50 mg/kg [30]: 22.3%; inhibition at 50 mg/kg [25]: 25.9%
CCCCNC(=O)Oc1ccc2c(c1Br)c1c(n2C)/C(=N\C)CC1	0.75	175	3.17	–
CC/N=C1/CCc2c1n(C)c1ccccc21	2.12	77.6	–	–
CNC(=O)Oc1ccc2c(c1)c1c(n2C)/C(=N\CCc2ccccc2)CC1	> 1000	> 1000	0.16	–
CCC/N=C1/CCc2c1n(C)c1ccc(OC(=O)NC)cc21	25.4	> 1000	3.84	–
Cn1c2c(c3ccccc31)CC/C2=N/Cc1ccncc1	113	> 1000	–	–
C/N=C1/CCc2c1n(C)c1ccc(OC(=O)NC)c(Cl)c21	1.36	> 1000	0.23	–
CCC/N=C1/CCc2c1n(C)c1ccccc21	1.61	> 1000	–	–
C/N=C1/CCc2c1n(C)c1ccc(OC(=O)NCc3ccccc3)c(Br)c21	5.47	> 1000	4.19	–
CCCCCCCNC(=O)Oc1ccc2c(c1)[C@]1(C)CCN(C)[C@@H]1N2C [EPTASTIGMINE]	–	–	0.009	inhibition [31]: 20.8%; inhibition [32]: 72.9%; inhibition [33]: 33.2%; inhibition [34]: 52.3%
CCCn1c2c(c3c(Br)c(OC(=O)NC)ccc31)CC/C2=N/CC	> 1000	> 1000	0.23	–
CC/N=C1/CCc2c1n(C)c1ccc(OC(=O)NC)cc21	3.74	> 1000	5.68	–
C/N=C1/CCc2c1n(C)c1ccc(OC(=O)NC)c(Br)c21	0.65	> 1000	0.18	–
